Data from patent publication US20100305214A1, “Use of a Monoterpene to Increase Tissue Repair” (Aisa Therapeutics, priority 2007, published 2010).
Blank lines part the entries; values can stand above or below the molecule they belong to.

Legend:
colon inflammation = experiment: Preventive anti-inflammatory effects in a rat colitis model (TNBS); assay type: in vivo; conditions: for average lengths of the colons vs group TNBS/Control / microscopic score of the colons: 6 days after induction; for average macroscopic score of the colons (Mean ± ESM): colons removed 6 days after induction, n = 6; for rats average weights vs group TNBS/Control: J6
Description: Average macroscopic and microscopic scores of the colons sampled 6 days after the induction of colon inflammation were compared.
Colon inflammation was induced by a unique rectal administration of a 2,4,6-trinitrobenzen-sulfonic acid solution (TNBS, Fluka, France). TNBS was dissolved in 40° alcohol at a concentration of 50 mg/ml. Animals were anaesthetised intraperitoneally by 2 mg/kg of Calmivet (Vetoquinol, Lure, France) and 50 mg/kg of Ketamine (Ketamine 1000, Virbac, Carros, France). 0.4 ml of the TNBS solution was administered rectally and the rats were maintained during at least 30 minutes to avoid the releasing of the TNBS.
Kruskal-Wallis test followed possibly by the Mann-Whitney test was used to compare the different studied variables of the treated groups by comparison with the groups “Control” and “TNBS/Control”. Significativity threshold was settled at P<0.05.

[1] = system: repaired extensor tendon, wound contraction, epithelialization; conditions: in vivo; cited from earlier work
isoprenylation enzymes = conditions: cited from earlier work
[2] = at doses which may have clinical activity; cited from earlier work
skin inflammation = experiment: Mouse chronic skin inflammation model (TPA); assay type: in vivo; conditions: 10 mg/kg/day topical, 10 days
Description: 100 μl of a TPA solution were applied daily on the dorsal surfaces of mice during seven days (from J4 to J10) at a concentration of 0.2 mg/ml.
The daily topical treatment begun 3 days before the induction of skin inflammation (=Ji) and was continued 7 days after the induction of skin inflammation (=J10).
From J4 to J10, the assayed products were applied 30 minutes before the application of TPA on the same skin area.
The mice were anaesthetized by intraperitoneal injection of a mixture of Ketamine (Ketamine 1000, Virbac, Carros, France) and Xylazine (Rompun 2%, Bayer Healthcare, Kiel, Allemagne). (2/3-1/3 vol/vol) at a dosis of 8 ml/kg. Blood (1 ml) was punctured intracardiacally after the last treatment. Blood samples were stored at +4° C. during 20 to 30 minutes then centrifuged at 1500 g for 15 minutes. Serums were removed, freezed at −20° C. and stored at −80° C. until pro-inflammatory cytokines dosage.
Dorsal skin samples were removed, fixed and stored in formaldehyde (Rotr-Histofix 4%, Carl Roth, Karlsruhe, Allemagne) until histopathological analysis.
Kruskal-Wallis test followed possibly by the Mann-Whitney test was used to compare the different studied variables of the treated groups by comparison with the groups “Control” and “TPA+Control”. Significativity threshold was settled at P<0.05.

wound healing process = experiment: Healing after scarification of the skin in hairless Skh-1 mice; conditions: 10 mg/kg/day topical in maize oil, 8 days
Description: 6 female mice hairless Skh-1 with an average weight of 20-25 g were used.
Each mouse was submitted to a scarification of the skin on each flank.
The daily topical treatment begun 1 hour before the scarification and was continued 8 days after the scarification.
Daily observations and photographs were performed in order to follow the healing process.

rats average weights vs group TNBS/Control (colon inflammation; Ibuprofen 50 mg/kg daily oral): not significantly different
Molecule: CC(C)Cc1ccc([C@H](C)C(=O)O)cc1 [Ibuprofen, (S)-(+)-Ibuprofen, reference compound]
average macroscopic scores of the colons vs groups TNBS/Control and TNBS/Limonene 100 (colon inflammation; 50 mg/kg daily oral): significantly lower
average lengths of the colons vs group TNBS/Control (colon inflammation; 50 mg/kg daily oral): significantly lower
average macroscopic score of the colons (Mean ± ESM) (colon inflammation; 50 mg/kg daily oral): 4.7 ± 2.7
breaking strength of the repaired extensor tendon, wound contraction, and epithelialization [1]: reduce

Molecule: C=C(C)[C@H]1CC=C(C)CC1 [Limonene, (4R)-1-methyl-4-isopropenylcyclohex-1-ene]
average macroscopic scores of the colons vs groups TNBS/Control and TNBS/Limonene 100 (colon inflammation; 10 mg/kg daily oral): significantly lower
average lengths of the colons vs group TNBS/Control (colon inflammation; 10 mg/kg daily oral): significantly lower
microscopic score of the colons (colon inflammation; 10 mg/kg daily oral): 2
average macroscopic score of the colons (Mean ± ESM) (colon inflammation; 10 mg/kg daily oral): 6.5 ± 1.3
average lengths of the colons vs group TNBS/Control (colon inflammation; 100 mg/kg daily oral): significantly lower
microscopic score of the colons (colon inflammation; 100 mg/kg daily oral): 4
average macroscopic score of the colons (Mean ± ESM) (colon inflammation; 100 mg/kg daily oral): 10.7 ± 2.7
rats average weights vs group TNBS/Control (colon inflammation; Limonene 10 mg/kg daily oral): not significantly different
rats average weights vs group TNBS/Control (colon inflammation; Limonene 100 mg/kg daily oral): not significantly different
circulating TNF-α level (colon inflammation; at a concentration five times inferior to the concentrations of Ibuprofen): decreased
post-inflammatory tissue repair, compared with ibuprofen (colon inflammation; oral administration, colons sampled 6 days after induction): induced post-inflammatory tissue repair
inhibition of the isoprenylation enzymes (isoprenylation enzymes): weak inhibitors
tolerance in cancer patients [2]: well tolerated

Molecule: C=C(C)[C@@H]1CC=C(CO)CC1 [Perillyl alcohol, (S)-4-Isopropenyl-1-cyclohexenylmethanol]
average macroscopic score of skin inflammation vs group TPA+Limonene (skin inflammation): significantly lower
average macroscopic scores of skin inflammation vs group TPA+control (skin inflammation): significantly lower
average microscopic scores of skin inflammation vs group TPA+control (skin inflammation): significantly lower
average serum level of IL-1β vs TPA+control group (skin inflammation): tendency to be significantly lower
average serum level of IL-6 vs TPA+control group (skin inflammation): significantly lower
average serum level of TNF-α vs TPA+control group (skin inflammation): significantly lower
histopathological analysis of the skin samples (skin inflammation): skins were little inflammatory; showed non-specific inflammatory skin lesions without epidermis ulceration and with an inflammatory rarely marked
Average serum levels of IL-1β (Mean ± ESM) (skin inflammation; TPA-treated mice): 5.3 ± 1.7 pg/mL
Average serum levels of IL-6 (Mean ± ESM) (skin inflammation; TPA-treated mice): 13.0 ± 3.8 pg/mL
Average serum levels of TNF-α (Mean ± ESM) (skin inflammation; TPA-treated mice): 80.6 ± 24.7 pg/mL
IC50 values, isoprenylation enzymes (isoprenylation enzymes): low mM range
wound healing process in comparison with corn oil alone (wound healing process): much better results
wound healing process in comparison with limonene (wound healing process): better results

Molecule: C=C(C)[C@@H]1CC=C(C(=O)O)CC1 [perillic acid, reference compound]
IC50 values, isoprenylation enzymes (isoprenylation enzymes): low mM range

Molecule: S-limonene [reference compound]
inhibition of the isoprenylation enzymes (isoprenylation enzymes): weak inhibitors
